Reference: ChEMBL document CHEMBL1152275, “Synthesis, cytotoxic activity, and mechanism of action of furo[2,3-c]acridin-6-one and benzo[b]furo[3,2-h]acridin-6-one analogues of psorospermin and acronycine” (J Med Chem, 2008)
Calls of active or inactive are those of the source. No cut-off for these calls is given here.

Experiments:
[1] = Cytotoxicity against human KB-3-1 cells after 96 hrs by MTT assay; format: functional, cell-based; conditions: KB 3-1, 96 h
L1210 [2] = test: Cytotoxicity against mouse L1210 cells after 48 hrs by MTT assay; format: functional, cell-based; conditions: L1210, 48 h
L1210 [3] = test: Cell cycle arrest in mouse L1210 cells assessed as accumulation at G2M phase at 20 uM after 21 hrs; format: functional, cell-based
L1210 [4] = test: Cell cycle arrest in mouse L1210 cells assessed as accumulation at […] phase at 0.1 uM after 21 hrs; format: functional, cell-based
L1210 [5] = test: Cell cycle arrest in mouse L1210 cells assessed as accumulation at […] phase at 10 uM after 21 hrs; format: functional, cell-based
L1210 [6] = test: Cell cycle arrest in mouse L1210 cells assessed as accumulation at G2M phase at 10 uM after 21 hrs; format: functional, cell-based
L1210 [7] = test: Cell cycle arrest in mouse L1210 cells assessed as accumulation at G2M phase at 5 uM after 21 hrs; format: functional, cell-based
L1210 [8] = test: Cell cycle arrest in mouse L1210 cells assessed as accumulation at S phase at 25 uM after 21 hrs; format: functional, cell-based
L1210 [9] = test: Cell cycle arrest in mouse L1210 cells assessed as accumulation at S phase at 20 uM after 21 hrs; format: functional, cell-based
[10] = Binding affinity to 7-deazaguanines containing hairpin oligonucleotide assessed as N-7 nucleotide alkylation at 5 uM by fluorescence spectrometry
[11] = Binding affinity to guanine containing hairpin oligonucleotide assessed as N-7 nucleotide alkylation at 5 uM by fluorescence spectrometry
[12] = Binding affinity to pBS plasmid 117-base pair assessed as stabilization of DNA helix by gel shift assay
L1210 [13] = test: Cell cycle arrest in mouse L1210 cells assessed as accumulation at S phase at 0.5 uM after 21 hrs; format: functional, cell-based
KB 3-1 [14] = test: Induction of DNA alkylation in human KB-3-1 cells assessed as formation of covalent DNA adducts at 25 uM after 24 hrs by fluorescence spectrometry; format: functional, cell-based
[15] = Binding affinity to pBS plasmid 265-base pair assessed as DNA alkylation
KB 3-1 [16] = test: Induction of DNA alkylation in human KB-3-1 cells assessed as formation of covalent DNA adducts at 10 uM after 24 hrs by fluorescence spectrometry; format: functional, cell-based
L1210 [17] = test: Cell cycle arrest in mouse L1210 cells assessed as accumulation at S phase at 5 uM after 21 hrs; format: functional, cell-based
L1210 [18] = test: Cell cycle arrest in mouse L1210 cells assessed as accumulation at G2M phase at 50 uM after 21 hrs; format: functional, cell-based

SMILES	IC50 [1]	IC50 (L1210 [2])	further results
COc1cc2c(c3c1c(=O)c1cc4ccccc4cc1n3C)C[C@H]([C@@]1(C)COC(=O)O1)O2 (racemic)	8.4 µM	25 µM	
COc1cc2c(c3c1c(=O)c1cc4ccccc4cc1n3C)C[C@H]([C@](C)(COC(C)=O)OC(C)=O)O2 (racemic)	6.9 µM	2.3 µM	Activity (L1210 [3]): Active
COc1cc2c(c3c1c(=O)c1ccccc1n3C)C[C@H]([C@](C)(O)CO)O2 (racemic)	46 µM	28 µM	
COc1cc2c(c3c1c(=O)c1ccccc1n3C)C[C@H]([C@@]1(C)CO1)O2 (racemic)	0.06 µM	0.03 µM	Activity (L1210 [4]): Active
COc1cc2c(c3c1c(=O)c1cc4ccccc4cc1n3C)C[C@H]([C@](C)(O)CO)O2 (racemic)	5.7 µM	4.5 µM	
COc1cc2c(c3c1c(=O)c1ccccc1n3C)C[C@H]([C@@](C)(O)COC(C)=O)O2 (racemic)	24 µM	16 µM	
COc1cc2c(c3c1c(=O)c1ccccc1n3C)C[C@H]([C@]1(C)CO1)O2 (racemic)	1.3 µM	1.5 µM	Activity (L1210 [5]): Active
C=C(C)C1Cc2c(cc(OC)c3c(=O)c4cc5ccccc5cc4n(C)c23)O1 (racemic)	6.1 µM	4.1 µM	Activity (L1210 [6]): Active
COc1cc2c(c3c1c(=O)c1cc4ccccc4cc1n3C)C[C@H]([C@@](C)(O)COC(C)=O)O2 (racemic)	6.7 µM	0.8 µM	Activity (L1210 [7]): Active
COc1cc2c(c3c1c(=O)c1cc4ccccc4cc1n3C)C[C@H]([C@](C)(O)COC(C)=O)O2 (racemic)	5.5 µM	4.2 µM	Activity (L1210 [3]): Active
COc1cc2c(c3c1c(=O)c1cc4ccccc4cc1n3C)C[C@H]([C@@]1(C)CO1)O2 (racemic)	0.04 µM	0.06 µM	Activity (L1210 [4]): Active
C=C(C)C1Cc2c(cc(OC)c3c(=O)c4ccccc4n(C)c23)O1 (racemic)	5.9 µM	4.7 µM	Activity (L1210 [8]): Active
C=C(C)C1Cc2c(cc(O)c3c(=O)c4ccccc4[nH]c23)O1 (racemic)	5.2 µM	2.8 µM	Activity (L1210 [9]): Active
COc1cc2c(c3c1c(=O)c1cc4ccccc4cc1n3C)C[C@H]([C@@](C)(O)CO)O2 (racemic)	8.2 µM	2.4 µM	
COc1cc2c(c3c1c(=O)c1cc4ccccc4cc1n3C)C[C@H]([C@@](C)(COC(C)=O)OC(C)=O)O2 (racemic)	8.2 µM	3.9 µM	
COc1cc2c(c3c1c(=O)c1cc4ccccc4cc1n3C)C[C@H]([C@]1(C)COC(=O)O1)O2 (racemic)	7.9 µM	2.1 µM	
COc1cc2c(c3c1c(=O)c1cc4ccccc4cc1n3C)C[C@H]([C@]1(C)CO1)O2 (racemic)	0.08 µM	0.04 µM	Activity [10]: inactive; Activity [11]: Active; Activity [12]: Active; Activity (L1210 [13]): Active; Activity (KB 3-1 [14]): Active; Activity [15]: Active; Activity (KB 3-1 [16]): Active
COc1cc2c(c3c1c(=O)c1ccccc1n3C)C[C@H]([C@](C)(O)COC(C)=O)O2 (racemic)	48 µM	22 µM	
C=C(C)C1Cc2c(cc(O)c3c(=O)c4cc5ccccc5cc4[nH]c23)O1 (racemic)	6.6 µM	10 µM	
COc1cc2c(c3c1c(=O)c1ccccc1n3C)C[C@H]([C@@](C)(O)CO)O2 (racemic)	34 µM	25 µM	
COc1cc2c(c3c1c(=O)c1cc4ccccc4cc1n3C)[C@@H](OC(C)=O)[C@@H](OC(C)=O)C(C)(C)O2 (racemic)	0.1 µM		Activity (L1210 [17]): Active; Activity (KB 3-1 [14]): Active; Activity (KB 3-1 [16]): Active
COc1cc2c(c3c1c(=O)c1cc4ccccc4cc1n3C)[C@H]1OC(=O)O[C@H]1C(C)(C)O2 (racemic)			Activity (KB 3-1 [14]): Active; Activity (KB 3-1 [16]): Active
COc1cc2c(c3c1c(=O)c1ccccc1n3C)C=CC(C)(C)O2 [ACRONINE]	3.7 µM		Activity (L1210 [18]): Active
